Patent publication US12492173B2, “Herbicidal substituted N-tetrazolyl aryl carboxamides” (Bayer Aktiengesellschaft, priority 2019, dated 2025)

Key:
Format in all cases: in vivo
[1] = system: Echinochloa crus-galli; experiment: Pre-emergence herbicidal action, ECHCG; set-up: key to Herbicidal action against ECHCG: % activity: 100 = plants have died, 0 = like control plants; conditions: for herbicidal action ECHCG / herbicidal activity ECHCG: dosage 320 g/ha; for herbicidal activity ECHCG: scored visually after 3 weeks vs untreated controls (100% = plants have died); for Herbicidal action against ECHCG: comparative experiment
Procedure, shortened: (§1)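 Pre-emergence, sandy loam soil; WP/EC formulation applied to covering soil surface, 600–800 l/ha water + 0.2% wetter; greenhouse, 3 wk; visual % damage vs untreated (0–100%).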

[2] = system: Matricaria inodora; experiment: Pre-emergence herbicidal action, MATIN; set-up: key to Herbicidal action against MATIN: % activity: 100 = plants have died, 0 = like control plants; conditions: for herbicidal action MATIN / herbicidal activity MATIN: dosage 320 g/ha; for herbicidal activity MATIN: scored visually after 3 weeks vs untreated controls (100% = plants have died)
Procedure, shortened: as §1

[3] = system: Polygonum convolvulus; experiment: Pre-emergence herbicidal action, POLCO; conditions: dosage 320 g/ha; for herbicidal activity POLCO: scored visually after 3 weeks vs untreated controls (100% = plants have died)
Procedure, shortened: as §1

[4] = system: Echinochloa crus-galli; experiment: Post-emergence herbicidal action, ECHCG; set-up: key: % herbicidal action vs untreated; 100 = plants died, 0 = like control
Procedure, shortened: (§2)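 Sandy loam, greenhouse; one-leaf stage (2–3 wk after sowing); foliar spray of WP or EC, 600–800 l/ha water + 0.2% wetter; visual rating at ~3 wk vs untreated, % effect.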

[5] = system: Setaria viridis; experiment: Post-emergence herbicidal action, SETVI; set-up: key: % herbicidal action vs untreated; 100 = plants died, 0 = like control
Procedure, shortened: as §2

[6] = comparative experiment, post-emergence, 5 g of a.i./ha
[7] = comparative experiment, post-emergence, 20 g of a.i./ha

Row | SMILES | herbicidal action ECHCG [1] [%] | herbicidal action MATIN [2] [%] | herbicidal action ECHCG ([4]; Dosage 80 g/ha) | herbicidal action SETVI ([5]; Dosage 80 g/ha) | herbicidal activity ECHCG [1] [%] | herbicidal activity MATIN [2] [%] | herbicidal activity POLCO [3] [%] | further results
1 | Cc1ccc(C(=O)Nc2nnnn2C)c(Cl)c1C[S+](C)[O-] (racemic) [Example 1-288] | 90 | 100 | 90 | 100 |  |  |  | herbicidal action POLCO [3]: 80%
2 | CCS(=O)(=O)Cc1c(C(F)(F)F)ccc(C(=O)Nc2nnnn2C)c1C [Example 1-88] | 100 | 100 | 90 | 90 |  |  |  | 
3 | Cc1c(C(=O)Nc2nnnn2C)ccc(C(F)F)c1C[S+](C)[O-] (stereo not drawn) [Example 1-108] | 100 | 90 | 80 | 80 |  |  |  | herbicidal action POLCO [3]: 90%
4 | COc1c(C(=O)Nc2nnnn2C)ccc(C(F)(F)F)c1C[S+](C)[O-] (stereo not drawn) [Example 1-135] | 100 | 90 | 90 | 100 |  |  |  | 
5 | CSc1c(C(=O)Nc2nnnn2C)ccc(C(F)F)c1C[S+](C)[O-] (stereo not drawn) [Example 1-171] |  |  | 100 | 100 | 100 | 100 | 100 | 
6 | CSCc1c(C)ccc(C(=O)Nc2nnnn2C)c1Cl [Example 1-287] | 80 | 90 | 100 | 90 |  |  |  | 
7 | CSCc1c(C(F)F)ccc(C(=O)Nc2nnnn2C)c1Cl [Example 1-320] |  |  | 100 | 100 | 100 | 100 | 90 | Herbicidal action against ECHCG ([1]; 20 g of a.i./ha): 100; Herbicidal action against ECHCG [4, 6]: 100; Herbicidal action against SETVI [5, 6]: 100
8 | Cn1nnnc1NC(=O)c1ccc(C(F)(F)F)c(CS(C)(=O)=O)c1C(F)(F)C(F)(F)F [Example 1-552] |  |  | 90 | 80 | 100 | 100 | 90 | 
9 | CSCc1c(Cl)ccc(C(=O)Nc2nnnn2C)c1Cl [Example 1-559] | 100 | 90 |  |  |  |  |  | herbicidal action ECHCG ([4]; post-emergence, dosage 80 g/ha): 100%; herbicidal action SETVI ([5]; post-emergence, dosage 80 g/ha): 100%
10 | COc1c(C(=O)Nc2nnnn2C)ccc(Cl)c1CSC [Example 1-570] | 90 | 100 |  |  |  |  |  | herbicidal action POLCO [3]: 80%; Herbicidal action against ECHCG ([4]; post-emergence, dosage 80 g/ha): 100; Herbicidal action against SETVI ([5]; post-emergence, dosage 80 g/ha): 80
11 | CCSCc1c(C(F)(F)F)ccc(C(=O)Nc2nnnn2CC)c1C [Example 2-86] | 100 | 100 |  |  |  |  |  | herbicidal action POLCO [3]: 80%; herbicidal action ECHCG ([4]; post-emergence, dosage 80 g/ha): 90%; herbicidal action SETVI ([5]; post-emergence, dosage 80 g/ha): 90%
12 | CCn1nnnc1NC(=O)c1ccc(C(F)(F)F)c(CS(=O)(=O)CC)c1C [Example 2-88] | 100 | 100 | 90 | 90 |  |  |  | 
13 | CCn1nnnc1NC(=O)c1ccc(C(F)F)c(C[S+](C)[O-])c1C (stereo not drawn) [Example 2-108] | 90 | 100 | 100 | 90 |  |  |  | 
14 | CCn1nnnc1NC(=O)c1ccc(C(F)(F)F)c(C[S+](C)[O-])c1SC (stereo not drawn) [Example 2-162] |  |  | 90 | 90 | 100 | 100 | 100 | 
15 | CCn1nnnc1NC(=O)c1ccc(C(F)F)c(CSC)c1SC [Example 2-170] |  |  | 100 | 90 | 100 | 100 | 100 | 
16 | CCn1nnnc1NC(=O)c1ccc(C(F)F)c(C[S+](C)[O-])c1SC (stereo not drawn) [Example 2-171] |  |  | 90 | 90 | 100 | 100 | 90 | 
17 | CCn1nnnc1NC(=O)c1ccc(S(C)(=O)=O)c(CS(C)(=O)=O)c1Cl [Example 2-280] | 100 | 90 |  |  |  |  |  | Herbicidal action against ECHCG ([4]; post-emergence, dosage 80 g/ha): 90; Herbicidal action against SETVI ([5]; post-emergence, dosage 80 g/ha): 80

Row | SMILES | herbicidal action ECHCG [1] [%] | herbicidal action MATIN [2] [%] | herbicidal action ECHCG ([4]; Dosage 80 g/ha) | herbicidal action SETVI ([5]; Dosage 80 g/ha) | herbicidal activity ECHCG [1] [%] | herbicidal activity MATIN [2] [%] | herbicidal activity POLCO [3] [%] | further results
18 | CCn1nnnc1NC(=O)c1ccc(C(F)(F)F)c(CS(=O)(=O)CC)c1Cl [Example 2-301] | 100 | 100 | 90 | 90 |  |  |  | 
19 | CCn1nnnc1NC(=O)c1ccc(Cl)c(CSC)c1Cl [Example 2-559] | 100 | 90 | 100 | 100 |  |  |  | 
20 | CCCn1nnnc1NC(=O)c1ccc(S(C)(=O)=O)c(CSC)c1C [Example 3-37] |  | 90 | 100 | 90 |  |  |  | 
21 | CCCn1nnnc1NC(=O)c1ccc(S(C)(=O)=O)c(CS(C)(=O)=O)c1C [Example 3-39] | 90 | 100 | 90 | 90 |  |  |  | 
22 | CCCn1nnnc1NC(=O)c1ccc(C(F)(F)F)c(CSCC)c1C [Example 3-86] | 100 | 100 | 90 | 90 |  |  |  | herbicidal action POLCO [3]: 90%
23 | CCCn1nnnc1NC(=O)c1ccc(C(F)(F)F)c(C[S+](C)[O-])c1OC (stereo not drawn) [Example 3-135] | 100 | 100 | 100 | 100 |  |  |  | herbicidal action POLCO [3]: 90%
24 | CCCn1nnnc1NC(=O)c1ccc(C(F)(F)F)c(CSC)c1SC [Example 3-161] | 100 | 100 | 90 | 100 |  |  |  | 
25 | CCCn1nnnc1NC(=O)c1ccc(C(F)(F)F)c(CS(C)(=O)=O)c1SC [Example 3-163] |  |  | 90 | 90 | 100 | 100 | 80 | 
26 | CCCn1nnnc1NC(=O)c1ccc(C(F)F)c(CSC)c1SC [Example 3-170] |  |  | 90 |  | 100 | 100 | 90 | 
27 | CCCn1nnnc1NC(=O)c1ccc(C(F)F)c(C[S+](C)[O-])c1SC (stereo not drawn) [Example 3-171] |  |  | 90 |  | 100 | 100 | 90 | 
28 | CCCn1nnnc1NC(=O)c1ccc(C(F)F)c(CS(C)(=O)=O)c1SC [Example 3-172] |  |  | 90 |  | 100 | 100 | 100 | 
29 | CCCn1nnnc1NC(=O)c1ccc(C(F)(F)F)c(CS(=O)(=O)CC)c1Cl [Example 3-301] | 100 | 100 | 90 | 90 |  |  |  | 
30 | CCCn1nnnc1NC(=O)c1ccc(C(F)(F)F)c(CSCC(F)(F)F)c1Cl [Example 3-311] | 80 | 100 | 100 | 80 |  |  |  | 
31 | CCCn1nnnc1NC(=O)c1ccc(I)c(C[S+](C)[O-])c1Cl (stereo not drawn) [Example 3-363] | 100 | 100 | 100 | 100 |  |  |  | 
32 | CCCn1nnnc1NC(=O)c1ccc(C(F)(F)F)c(CS(C)(=O)=O)c1Br [Example 3-382] | 90 | 100 | 90 | 100 |  |  |  | 
33 | CCS(=O)(=O)c1c(C(F)(F)F)ccc(C(=O)Nc2nnnn2C)c1Br [Example V-13, 2-bromo-3-(ethylsulfonyl)-N-(1-methyl-1-1H-tetrazol-5-yl)-4-(trifluoromethyl)benzamide, reference compound] |  |  |  |  |  |  |  | Herbicidal action against ECHCG ([1]; 80 g of a.i./ha): 0; Herbicidal action against MATIN ([2]; comparative experiment, 80 g of a.i./ha): 0; Herbicidal action against ECHCG [4, 7]: 0; Herbicidal action against SETVI [5, 7]: 0
